Laboratory results from US10123985B2, “Therapeutic strategies for treating mitochondrial disorders” (Whitehead Institute for Biomedical Research, priority 2015, dated 2018).
Entries after “also recorded” stand apart in the source; their conditions may differ.

Legend:
[1] = tested on: 143B CytB cells; test: Proliferation assay of respiration-incompetent 143B CytB cybrid cells; assay type: cell-based; details: for Proliferation rate of 143B CytB cells: media supplemented with the substance, no pyruvate unless tested, uridine present
Experimental: FL5.12 cells were cultured in the same medium and supplemented with 5 μg/mL recombinant mouse IL-3 (R&D Systems). […] All cells incubated at 37° C. with 5% CO2.
Adherent cell lines growing in log phase were trypsinized, counted, and plated onto 6 well dishes (Corning) in 2 mL complete DMEM and incubated overnight. […] The following day, one plate of cells was counted to determine the initial cell count at the time of treatment. Cells were washed 2 times with 2 mL phosphate buffered saline (PBS) and 4 mL media premixed with the indicated treatments was added. FL5.12 cells, a suspension cell line, were washed 2 times in PBS and added directly to media containing the indicated treatments and 5 μg/mL recombinant mouse IL-3. Proliferation rate assay media was DMEM without pyruvate containing 10% dialyzed FBS, penicillin-streptomycin, and 0.1 mg/mL uridine, unless otherwise noted. […] Cells were counted using Cellometer Auto T4 Plus Cell Counter (Nexcelom Bioscience). Proliferation rate was determined using the following formula: Proliferation Rate (Doublings per day)=(log2(Final cell count (day 5)/Initial cell count (day 1))/4 (days)

[2] = tested on: 143B WT cybrid cells; test: Proliferation assay of respiration-competent 143B WT cybrid cells; assay type: cell-based; details: presence or absence of the substance
Experimental: (§1) 143B, A172, H1299, HeLa, U87 and MEF cells were cultured in Dulbecco's Modified Eagle's Medium (DMEM) (Gibco) supplemented with 10% fetal bovine serum (FBS) and penicillin-streptomycin. FL5.12 cells were cultured in the same medium and supplemented with 5 μg/mL recombinant mouse IL-3 (R&D Systems). 143B cybrid cell lines (WT Cybrid and CytB) were cultured in DMEM with 10% FBS, penicillin-streptomycin, and 0.1 mg/mL uridine. All cells incubated at 37° C. with 5% CO2.
(§2) Adherent cell lines growing in log phase were trypsinized, counted, and plated onto 6 well dishes (Corning) in 2 mL complete DMEM and incubated overnight. Initial seeding density was 2E4 cells per well for 143B, A172, H1299, HeLa, 143B WT Cybrid, and MEFs and 3E4 cells for 143B CytB and U87 cells. The following day, one plate of cells was counted to determine the initial cell count at the time of treatment. Cells were washed 2 times with 2 mL phosphate buffered saline (PBS) and 4 mL media premixed with the indicated treatments was added. FL5.12 cells, a suspension cell line, were washed 2 times in PBS and added directly to media containing the indicated treatments and 5 μg/mL recombinant mouse IL-3. Proliferation rate assay media was DMEM without pyruvate containing 10% dialyzed FBS, penicillin-streptomycin, and 0.1 mg/mL uridine, unless otherwise noted. For these cell lines at these seeding densities it was determined that for 4 days the cells maintained logarithmic proliferation (data not shown), therefore final cell counts were measured 4 days after treatment. Cells were counted using Cellometer Auto T4 Plus Cell Counter (Nexcelom Bioscience). Proliferation rate was determined using the following formula: Proliferation Rate (Doublings per day)=(log2(Final cell count (day 5)/Initial cell count (day 1))/4 (days)

[3] = tested on: A172, H1299, HeLa, U87, FL5.12, and MEF cell lines; test: Proliferation assay of a panel of cell lines treated with respiration inhibitors; assay type: cell-based; details: rotenone, antimycin or oligomycin plus the substance
Experimental: as §1, §2

[4] = tested on: 143B CytB cells; test: Measurement of NAD+/NADH (NAD/NADH Glo) in 143B CytB cells; assay type: cell-based; details: absence or presence of the substance
Experimental: NAD^+/NADH measurements were done using a modified version of manufacturer instructions of NAD/NADH Glo Assay (Promega). Cells were plated and treated as for proliferation assays and cell extracts were taken 6 hours after treatment. For extraction, cells were quickly washed 3 times in ice cold PBS, extracted in 100 μL ice cold lysis buffer (1% Dodecyltrimethylammonium bromide (DTAB) in 0.2 N NaOH diluted 1:1 with PBS), and immediately frozen at −80° C. To measure NADH, 20 μL of sample was moved to PCR tubes and incubated at 75° C. for 30 min, where the basic conditions will selectively degrade NAD^+. To measure NAD^+, 20 μL of the samples was moved to PCR tubes containing 20 μL lysis buffer and 20 μL 0.4 N HCl and incubated at 60° C. for 15 min, where acidic conditions will degrade NADH. Following incubations, samples were allowed to equilibrate to room temperature and then quenched by neutralizing with 20 μL 0.25 M Tris in 0.2 N HCl (NADH) or 20 μL 0.5 M Tris base (NAD^+). Manufacturer instructions were followed thereafter to measure NAD^+/NADH.

[5] = tested on: Jurkat cells; test: Proliferation assay (Cell Titer Glo, 5 days) of wild type and knock-out Jurkat cells; assay type: cell-based, human; details: 5 days
Experimental: sgRNAs (oligonucleotide sequences are indicated above) were cloned into lentiCRISPR-v1 linearized with BsmBI by Gibson Assembly (NEB). sgRNA expressing vector along with lentiviral packaging vectors Delta-VPR and CMV VSVG were transfected into HEK-293T cells using the XTremeGene 9 transfection reagent (Roche). Similarly, for overexpression cell lines, cDNA vectors along with retroviral packaging vectors gag-pol and CMV VSV-G were transfected into HEK-293T cells. Media was changed 24 hours after transfection.

[6] = tested on: MERRF and CYTB cybrids, 143B ρ0 cells; test: Cell counting assay of cybrids and 143B ρ0 cells; assay type: cell-based; details: 6 days; for Proliferation of ETC-deficient cybrids and 143B ρ0 cells: RPMI with uridine, pyruvate (1 mM) or aspartate (10 mM); for Proliferation of ETC-defective cybrids expressing sgGOT1: uridine and pyruvate (1 mM), with or without aspartate (10 mM)
Experimental: Cybrids or 143B ρ0 cells were plated in triplicate in 12 well plates at 5,000-20,000 cells per well in 1.5 mL as described in each experiment. After six days, the entire contents of the well was trypsinized and counted using a Beckman Z2 Coulter Counter with a size selection setting of 8-30 um.
Transmitochondrial cytoplasmic hybrid cells (cybrids) are commonly used to study the mechanisms through which mutations in mitochondrial DNA (mtDNA) impair cellular function (Schon et al., 2012). These cells harbor patient-derived mitochondrial genomes with pathogenic mutations, and, like cells treated with ETC inhibitors, require pyruvate to proliferate in culture (King and Attardi, 1989, 1996). To expand upon our work with pharmacological inhibition of the ETC, we asked if aspartate supplementation rescues the proliferation of cells with genetic ETC defects. We used two patient-derived cybrid cells, the first with a homoplasmic microdeletion in the cytochrome b subunit of complex III (CYTB) associated with a form of parkinsonism and encephalopathy (De Coo et al., 1999; Rana et al., 2000), and the second with a homoplasmic point mutation in the mitochondrially encoded tRNA lysine (MT-TK) associated with myoclonic epilepsy with ragged red fibers (MERRF) (Wallace et al., 1988). To characterize the metabolic needs of these cybrids, as well as cells lacking mtDNA (143B ρ0), we cultured them in media with or without pyruvate or aspartate.

[7] = pyruvate (1 mM), phenformin, piericidin, antimycin

CCC(=O)C(=O)O [AKB, α-ketobutyrate]
Uridine auxotrophy of 143B CytB cells ([1]; AKB in the presence or absence of uridine): does not alleviate uridine auxotrophy of 143B CytB cells
Proliferation rate of 143B CytB cells [1]: rescued proliferation rate of 143B CytB cells to levels similar to what was observed with pyruvate addition
Proliferation rate of 143B WT cybrid cells [2]: does not impact proliferation of 143B WT cybrids
Proliferation of cell line panel with supplementation [3]: sufficient to restore proliferation in the presence of ETC inhibitors
Cellular NAD+/NADH ratio [4]: sufficient to increase the cellular NAD^+/NADH ratio

N[C@@H](CC(=O)O)C(=O)O [aspartate]
Cell permeability ([1]; inferred from supra-physiological doses required to restore growth): nearly impermeable to cells
Proliferation rate of 143B CytB cells [1]: capable of supporting exponential growth of 143B CytB cells
Proliferation rate of 143B WT cybrid cells [2]: did not have gross proliferation differences
Proliferation of cell line panel with supplementation [3]: rescued ETC inhibitor-induced proliferation decreases in all other cell lines tested
Cellular NAD+/NADH ratio [4]: nor did it affect the NAD^+/NADH ratio
Proliferation of phenformin-treated wild-type Jurkat cells with aspartate ([5]; aspartate (10 mM) in RPMI): partially reversed the anti-proliferative effects of phenformin on wild-type cells
Viability and proliferation of phenformin-treated GOT1-null Jurkat cells with aspartate ([5]; aspartate (10 mM) in RPMI): rescues death of GOT1-null cells upon ETC inhibition; also recorded: prevented the phenformin induced death of GOT1-null cells and even enabled these cells to proliferate in the presence of the drug
Proliferation of ETC-deficient cybrids and 143B ρ0 cells [6]: on its own enabled their proliferation; also recorded: can replace pyruvate in enabling the proliferation of patient-derived mtDNA mutant cybrids and 143B ρ0 cells
Proliferation of ETC-defective cybrids expressing sgGOT1 [6]: bypassed the need for GOT1; also recorded: can be bypassed by aspartate

CC(=O)C(=O)O [pyruvate]
Proliferation rate of 143B CytB cells [1]: divide at a similar rate
Proliferation rate of 143B WT cybrid cells [2]: divide at a similar rate; also recorded: does not impact proliferation of 143B WT cybrids
Cellular NAD+/NADH ratio [4]: sufficient to increase the cellular NAD^+/NADH ratio
Proliferation of ETC inhibitor-treated MDH1-null Jurkat cells with pyruvate ([5]; pyruvate (1 mM)): did not stimulate aspartate synthesis or rescue proliferation; also recorded: does not rescue the proliferation of phenformin-treated MDH1 null cells
Proliferation of ETC inhibitor-treated PC-null Jurkat cells with pyruvate ([5]; pyruvate (1 mM), phenformin (10 μM), antimycin (1 μM) or piericidin (0.5 μM)): still prevented the anti-proliferative effects of ETC inhibitors; also recorded: can rescue the death of PC-null cells induced by ETC inhibition
Proliferation of ETC inhibitor-treated wild type Jurkat cells with pyruvate [5, 7]: almost completely blocked the anti-proliferative effects of several ETC inhibitors
Viability and proliferation of ETC inhibitor-treated GOT1-null Jurkat cells with pyruvate [5, 7]: cannot rescue death of GOT1-null cells induced by ETC inhibitors; also recorded: no beneficial effect on the GOT1-null cells
Proliferation of ETC-deficient cybrids and 143B ρ0 cells [6]: proliferated in media supplemented with pyruvate
Proliferation of ETC-defective cybrids expressing sgGOT1 [6]: requires GOT1; also recorded: enables the proliferation of patient-derived cybrid cells in a GOT1-dependent fashion
